The values below come from patent US20250002450A1, “CATIONIC STEROID COMPOUNDS, METHOD OF OBTAINING THEREOF, FORMULATIONS COMPRISING THEREOF AND THEIR USES” (UNIVERSIDADE DO PORTO, priority 2021, published 2025).

For test [1], the system named is C. albicans DSY294. The experiment in a line: Antifungal MIC/MLC (broth microdilution). Type of test: cell-based, Candida albicans. The source says: (§1) Twenty-three fungal strains were used in this study, including reference strains and clinical isolates of yeasts and filamentous fungi. Yeast strains included reference strains (ATCC—American Type Culture Collection and CECT—Colección Española de Cultivos Tipo) and clinical isolates: C. albicans ATCC 10231, Candida krusei ATCC 6258, C. albicans H37, C. albicans FF172, C. albicans FF176, C. albicans DSY294, C. albicans DSY296, C. glabrata DSY562, C. glabrata DSY565 and Cryptococcus neoformans CECT 1078. Filamentous fungi included Aspergillus fumigatus ATCC 240305, A. fumigatus C111, A. niger ATCC 16404, A. flavus F44, Fusarium solani FF125, F. oxysporum FF115, and dermatophytes Trichophyton rubrum FF5, T. mentagrophytes FF7, Microscoporum canis FF1 and Nannizzia gypsea FF3 (formerly Microsporum gypseum) and a species of genera Mucor, Lichetheimia and Scedosporium. Saprolegnia parasitica CBS 223.65, a reference strain of an oomycete fish pathogen, was also included. All microorganisms were kept in Sabouraud Dextrose Broth (SDB: BioMérieux, Marcy L'Etoile, France) plus glycerol (20%) at −80° C. The strains were kept in Sabouraud Dextrose Agar (SDA: BioMérieux, Marcy L'Etoile, France) slants and were sub-cultured in SDA before each test. S. parasitica was kept in Corn Meal Agar plates (CMA: BBL™ Corn Meal Agar, BD, Le Pont-de-Claix, France) and was sub-cultured in CMA before each experiment. C. albicans H37, was kindly provided by Cidilia Pina Vaz (CHSJ, Porto, Portugal) and C. albicans DSY294, C. albicans DSY296, C. glabrata DSY562, C. glabrata DSY565 were kindly provided by D. Sanglard (University of Lausanne, Switzerland). A stock solution of compound 1 (10 mg/mL), was prepared in dimethyl sulfoxide (DMSO 99%: Alfa Aesar, Kandel, Germany), kept at −20 degrees C., and freshly diluted in the appropriate culture media before each assay. In all experiments, in-test concentrations of DMSO were kept below 2%.
(§2) Antifungal activity was evaluated by determining the MIC of compound 1 by the broth microdilution method, according to CLSI guidelines (reference documents M27-A3 for yeasts and M38-A2 for filamentous fungi). Briefly, cell or spore suspensions were prepared in RPMI-1640 broth medium (Biochrom, Berlin, Germany) buffered with 3-(N-morpholino)propane sulfonic acid (MOPS) (Sigma-Aldrich, St. Louis, MO, USA) (henceforth referred to as RPMI) from fresh cultures of the different strains of fungi. For yeasts, the inoculum was adjusted to 0.5-2.5×10^3 CFU/mL. For filamentous fungi, the inoculum was adjusted to 1-3×10^3 CFU/mL for dermatophytes, and 0.4-5×10^4 CFU/mL for all other strains. […] Sterility and growth controls were included in each assay. The 96-well flat-bottomed untreated polystyrene microtiter plates which were incubated for 48 h at 35° C., with the exception of Lichetheimia spp. which was incubated at 25° C. for 48 h, and the dermatophyte strains, which incubated for 5-7 days at 25° C. […] The minimal lethal concentration (MLC) was determined by spreading 20 μL of culture collected from wells showing no visible growth on SDA plates. The MLC was determined as the lowest concentration showing complete growth inhibition after 48 h at 35 degrees C., 48 h at 25 degrees C.
(In general: In broth dilution the organism is exposed to a series of concentrations in liquid medium.)

Test [2] has as its system C. albicans DSY296. The experiment in a line: Antifungal MIC/MLC (broth microdilution). Format: cell-based, Candida albicans.
Source text: as §1, §2

Test [3] relates to C. albicans FF172. Description: Antifungal MIC/MLC (broth microdilution). Format: cell-based, Candida albicans.
Source text: as §1, §2

The subject of test [4] is C. albicans FF176. Description: Antifungal MIC/MLC (broth microdilution). Type of test: cell-based, Candida albicans.
Source text: as §1, §2

The subject of test [5] is C. albicans H37. Description: Antifungal MIC/MLC (broth microdilution). Format: cell-based, Candida albicans.
Source text: as §1, §2

Test [6] deals with E. coli ATCC 25922. The experiment in a line: Time-kill kinetics. Type of test: cell-based, Escherichia coli. Here is the method:
The present disclosure relates to antibacterial mechanism of action of the compound 1 herein disclosed. In an embodiment, the evaluation of time-kill kinetics was performed as follows. Time-kill kinetics of compound 1 were evaluated for E. coli ATCC 25922, allowing the confirmation of its bactericidal effect. This is usually determined when ≥99.9% killing of the initial inoculum occurs and is determined by a 3-log10-unit decrease in CFU/mL.
The effect of compound 1 concentrations ranging between 64 and 8 μg/mL was evaluated. The bacterial inoculum was prepared by suspending colonies from overnight cultures (grown in MHA) in CAMHB, and an aliquot of this suspension was added to each tube of CAMHB alone (control) or CAMHB plus an appropriate amount of compound 1, to give an inoculum of approximately 5×10^5 CFU/mL, in a final volume of 10 mL. Tubes were incubated at 37 degrees C. in a water bath with shaking. At predetermined time points (30 min, 1, 1.5, 2, 3, 4, 6, 8, 12, and 24 h), 100 μL aliquots were aseptically removed from each tube, after vortexing, serially diluted in buffered peptone water (Biokar Diagnostics, Allone, Beauvais, France), if necessary, and spread on MHA. Colony counts were determined following overnight incubation at 37 degrees C. and log10 CFU/mL was plotted against time. Three independent experiments were performed.

[7] abbreviates: C. albicans DSY296, resistant to fluconazole or azoles.
Where [8] appears, read: C. albicans FF176, resistant to fluconazole or azoles.
[9] abbreviates: C. albicans H37, resistant to fluconazole or azoles.

Converted amounts (≈) assume the structure as drawn. Like-named read-outs stand apart in the source and are kept apart here.

As to `OC(Cn1cncn1)(Cn1cncn1)c1ccc(F)cc1F` [Fluconazole, reference compound], the MIC is 0.125 µg/mL (≈ 0.408 µM) in test [1] (Candida albicans, DSY294); 64 µg/mL (≈ 209 µM) in test [2] (Candida albicans, DSY296, read-out: MIC); 0.25 µg/mL (≈ 0.816 µM) in test [3] (Candida albicans, read-out: MIC); 32 µg/mL (≈ 104 µM) in test [4] (Candida albicans, FF176, read-out: MIC); ≥ 128 µg/mL in test [5] (Candida albicans, H37, read-out: MIC).

For `C[C@H](CCC(=O)NCCN)[C@H]1CC[C@H]2[C@@H]3CC[C@@H]4C[C@H](O)CC[C@]4(C)[C@H]3C[C@H](O)[C@]12C` [Compound 1, (R)—N-(2-aminoethyl)-4-((3R,5R,8R,9S,10S,12S,13R,14S,17R)-3,12-dihydroxy-10,13-dimethylhexadecahydro-1H-cyclopenta[a]phenanthren-17-yl) pentanamida], the MIC in test [1] (C. albicans DSY294) is 64 µg/mL (≈ 147 µM); in test [2] (setting [7]), 64 µg/mL (≈ 147 µM); in test [3], 64 µg/mL (≈ 147 µM); in test [4] (setting [8]) it was 32 µg/mL (≈ 73.6 µM); in test [5] (setting [9]), 64 µg/mL (≈ 147 µM). Further, the MLC was 64 µg/mL (≈ 147 µM) in test [1] (C. albicans DSY294); 64 µg/mL (≈ 147 µM) in test [2] (setting [7]); 64 µg/mL (≈ 147 µM) in test [3]; 32 µg/mL (≈ 73.6 µM) in test [4] (setting [8]); 64 µg/mL (≈ 147 µM) in test [5] (setting [9]). In test [6] (64 μg/mL (2×MIC)), the “exposure time to bactericidal activity (≥99.9% killing)” value is “approximately 1 h”. Moreover, the “decrease in CFU/mL” value in test [6] (64 μg/mL, after 30 min of exposure) is listed as 2 log10-unit. In addition, in test [6] (64-8 μg/mL), the “type of killing (in words)” value was “concentration-dependent killing”.

For orientation: MIC means the lowest concentration found to suppress growth.
